Reference: paper PMC6121244, “Differences in Functional Expression of Connexin43 and NaV1.5 by Pan- and Class-Selective Histone Deacetylase Inhibition in Heart” (International Journal of Molecular Sciences, 2018)
Like-named read-outs stand apart in the source and are kept apart here.

Experiments:
[1] = tested on: HeLa nuclear extract HDAC activity; set-up: method as in PMID 17455259; conditions: incomplete inhibition; cited from earlier work
[2] = tested on: HDAC9; set-up: method as in PMID 17868033; conditions: >100,000 = incomplete inhibition at 100 μM; cited from earlier work
[3] = tested on: HDAC8; set-up: method as in PMID 17455259; conditions: cited from earlier work
[4] = tested on: HDAC8; set-up: method as in PMID 17868033; conditions: >100,000 = incomplete inhibition at 100 μM; cited from earlier work
[5] = tested on: HDAC4; set-up: method as in PMID 17868033; conditions: >100,000 = incomplete inhibition at 100 μM; cited from earlier work
[6] = tested on: IK,to and IK,ss in NMVMs; assay: Transient and steady state outward K+ currents, whole cell patch clamp
[7] = tested on: HDAC1
[8] = tested on: ventricular gap junction conductance (gj), Cx43-mediated; assay: Gap junction conductance (gj), dual whole cell patch clamp on NMVM cell pairs; type: cell-based, mouse
Method: Final DMSO levels were <0.005% (vol/vol).
Gap junction currents (Ij) were recorded in the dual whole cell configuration according to previously published methods. Upon establishing a dual whole cell patch, Ij was recorded using a 30 s, 20 mV trans-junctional voltage protocol. All dual whole cell current recordings were low-pass filtered at 500 Hz and digitized at 2 KHz using pClamp 8.2 and graphical analysis performed using Origin 7.5 or 8.6 software as previously described.

[9] = tested on: Cx43 protein expression in NMVMs; assay: Western blot of Cx43 protein level; type: cell-based, mouse; conditions: 24 h
[10] = tested on: NaV1.5 protein expression in NMVMs; assay: Western blot of NaV1.5 protein level; type: cell-based, mouse; conditions: 24 h
[11] = tested on: HDAC1; conditions: read-out: IC50 HDAC1, cited from earlier work
[12] = tested on: total HDAC activity in cultured neonatal mouse ventricular cardiomyocytes; assay: Fluor de Lys total HDAC activity assay in cultured ventricular cardiomyocytes; type: cell-based; conditions: NMVMs, 18–24 h treatment; for C1, decay constant of first exponential component of HDAC inhibition curve / C2, decay constant of second exponential component of HDAC inhibition curve: double exponential fit
Method: Neonatal mice born from an inbred C57BL/6 mouse colony were anesthetized using isoflurane and the hearts were excised in accordance with procedures approved by the SUNY Upstate Medical University Institutional Animal Care and Use Committee (IACUC) # 263 on 15 March 2017. The excised hearts were separated into atria and ventricles and exposed to collagenase solution for digestion. The dissociated cells were pre-plated for 30 min to reduce fibroblast content by differential adhesion and the supernatant was collected, centrifuged and re-suspended in 1 mL/heart of M199/10% FBS culture media. The primary cells were plated into 96-well plates for HDAC activity assays, 35 mm culture dishes for patch clamp electrophysiology, or 60 mm culture dishes and homogenized after 3 days for Western blots.
Aliquots of 2 × 10^5 ventricular myocytes per well (96-well plate) were grown in 200 μL of 200 μM bromodeoxyuridine (BrDU)/M199, exchanged daily. Cell densities were counted with a hemocytometer and seeded into the wells. Wells were incubated with 2000 pmoles of the acetylated Fluor-de-Lys® substrate for 8 h during HDAC inhibition. […]

[13] = tested on: late INa in NMVMs; assay: Late INa, whole cell patch clamp; type: cell-based, mouse
From the text: Increases in late or persistent INa have been linked to cardiac arrhythmias and heart failure. […] . Subsequently, we modified a voltage clamp ramp protocol designed to generate late INa I–V relationships. […] .

[14] = tested on: acetyl-α-tubulin and acetyl-histone 3; assay: Western blot of acetylation markers; conditions: 1 μM MS-275, 24 h
[15] = tested on: cardiac sodium current (INa) in NMVMs, primarily NaV1.5; assay: Cardiac sodium current (INa) density and Vm-dependent gNa activation/inactivation, whole cell patch clamp; type: cell-based, mouse; conditions: 18–24 h
From the text: Since both the activation and inactivation of INa are dependent on the membrane potential (Vm), we calculated the normalized Na^+ conductance (gNa) by dividing the average peak INa by the difference between Vm and the reversal potential (Erev) for INa, and then divided the gNa value for each Vm by the maximum gNa value for each experiment. The gNa–Vm curves were fit with a Boltzmann function gNa= gNamax+ (gNa− gNamax)/[1+exp((Vm− V1/2)/dVm)] using Origin 8.6. […] Final DMSO levels were <0.005% (vol/vol).

[16] = tested on: cardiac sodium current (INa) in NMVMs, primarily NaV1.5; set-up: method as in PMID 27638876; conditions: previous experiments ref 13; cited from earlier work
[17] = tested on: total HDAC activity in cultured neonatal mouse ventricular cardiomyocytes; conditions: NMVMs, cited from earlier work; for C1, decay constant of first exponential component of HDAC inhibition curve / C2, decay constant of second exponential component of HDAC inhibition curve: double exponential fit
[18] = tested on: HDAC6; conditions: cited from earlier work
[19] = tested on: HDAC3; set-up: method as in PMID 17868033; conditions: >100,000 = incomplete inhibition at 100 μM; cited from earlier work
[20] = molecular target: HDAC7; set-up: method as in PMID 20139990; conditions: cited from earlier work
[21] = molecular target: HDAC2; set-up: method as in PMID 20139990; conditions: cited from earlier work
[22] = molecular target: HDAC5; set-up: method as in PMID 20139990; conditions: cited from earlier work
[23] = molecular target: HDAC1; set-up: method as in PMID 20139990; conditions: cited from earlier work
[24] = tested on: HDAC7; set-up: method as in PMID 17868033; conditions: >100,000 = incomplete inhibition at 100 μM; cited from earlier work
[25] = tested on: HDAC1; set-up: method as in PMID 17868033; conditions: >100,000 = incomplete inhibition at 100 μM; cited from earlier work
[26] = read-out: IC50(2), low affinity site, total HDAC activity, IC50 = 0.693·C2
[27] = adjusted values from published data ref 14
[28] = 25, 100, 500, 2500 nM panobinostat, p < 0.05
[29] = adjusted values from published data ref 13

## Nc1ccccc1NC(=O)c1ccc(CNC(=O)OCc2cccnc2)cc1 [Entinostat, entinostat]
[1]
  IC50: 11 µM
[2]
  IC50: […]
[3]
  IC50: […]
[4]
  IC50: […]
[5]
  IC50: […]
[6]; 1 μM MS275, 24 h
  transient outward and steady state K+ currents: no si gni ficant chang es
[7]
  preferential inhibition of HDAC1 over other HDACs: […]
[8]; 5 μM entinostat, 18–24 h
  effect on ventricular gj: significant reduction in gj
[9]; 1 μM entinostat
  Cx43 protein level: no significant changes
[10]; 1 μM entinostat
  NaV1.5 protein level: no significant changes
[11]
  IC50: […]
[11]; text statement
  IC50: […]
[12]
  C2, decay constant of second exponential component of HDAC inhibition curve: 12,926 ± 3655 nM
[12]; read-out: IC50(1), high affinity site, total HDAC activity, IC50 = 0.693·C1
  IC50: 0.436 ± 0.115 µM
[12]; [26]
  IC50: 8.96 ± 2.53 µM
[13]; 1 μM entinostat 18–24 h, Vm ramp
  effect on late INa current density: no increase in late INa
[14]
  Ac-H3 and Ac-α-tubulin signals: only increased the Ac-H3 signal
[15]; 1 μM entinostat
  effect on peak Na+ current density: no significant effect

## C/C=C1\NC(=O)[C@H]2CSSCC/C=C/[C@H](CC(=O)N[C@H](C(C)C)C(=O)N2)OC(=O)[C@H](C(C)C)NC1=O [FK228, romidepsin]
[16]
  positive shift in half activation voltage (V½): +2 to +8 mV
  shift in Vm-dependent gNa inactivation curve: no shift
[17]; [27]
  C1, decay constant of first exponential component of HDAC inhibition curve: 7.9 ± 0.9 nM
  C2, decay constant of second exponential component of HDAC inhibition curve: 2524 ± 678 nM
[17]; adjusted values from published data ref 14, read-out: IC50(1), high affinity site, total HDAC activity
  IC50: 0.0055 ± 0.0006 µM
[17]; adjusted values from published data ref 14, read-out: IC50(2), low affinity site, total HDAC activity
  IC50: 1.75 ± 0.47 µM

## CCCC(=O)[O-].[Na+] [NaB, sodium butyrate]
[8]; 5 mM NaB alone
  increase in gj: 26%
[8]; increasing concentrations of NaB
  effect on gj: non-significantly increased gj in a concentration-dependent manner
[18]
  activity against the class IIb HDAC6: no activity

## Cc1[nH]c2ccccc2c1CCNCc1ccc(/C=C/C(=O)NO)cc1 [Panobinostat, panobinostat]
[4]
  IC50: […]
[5]
  IC50: […]
[6]; 100 nM, 24 h
  transient outward and steady state K+ currents: No signifi cant changes
[8]; 18–24 h, exponential fit
  amplitude of exponential fit of decline in gj: 48.5
[8]; 100, 500 or 1000 nM panobinostat, 18–24 h
  effect on ventricular gj: significant dose-dependent decrease
[9]; [28]
  Cx43 protein level: concentration-dependent decrease
[19]
  IC50: […]
[18]; >100,000 = incomplete inhibition at 100 μM
  IC50: […]
[10]; [28]
  NaV1.5 protein level: concentration-dependent decrease
[12]
  C1, decay constant of first exponential component of HDAC inhibition curve: 57.4 ± 22.2 nM
  C2, decay constant of second exponential component of HDAC inhibition curve: 2959 ± 838 nM
[12]; IC50 = 0.693·C1, listed as LBH589, read-out: IC50(1), high affinity site, total HDAC activity
  IC50: 0.0398 ± 0.0154 µM
[12]; IC50 = 0.693·C1, read-out: IC50(1), high affinity site, total HDAC activity
  IC50: ~0.04 µM
[12]; [26]
  IC50: ~2 µM
[12]; read-out: IC50(2), low affinity site, total HDAC activity, IC50 = 0.693·C2, listed as LBH589
  IC50: 2.05 ± 0.581 µM
[13]; 100 or 500 nM panobinostat overnight, average current 100 to 150 msec
  effect on late INa: no difference in late INa
[15]; 100 or 500 nM panobinostat
  effect on peak cardiac Na+ current density: decreased the cardiac sodium current density in a dose-dependent manner

## CC(/C=C/C(=O)NO)=C\[C@@H](C)C(=O)c1ccc(N(C)C)cc1 [TSA, Trichostatin A]
[16]
  positive shift in half activation voltage (V½): +2 to +8 mV
  shift in Vm-dependent gNa inactivation curve: no shift
[17]; [29]
  C1, decay constant of first exponential component of HDAC inhibition curve: 10.6 ± 1.3 nM
  C2, decay constant of second exponential component of HDAC inhibition curve: 258 ± 76 nM
[17]; adjusted values from published data ref 13, read-out: IC50(1), high affinity site, total HDAC activity
  IC50: 0.0073 ± 0.0009 µM
[17]; adjusted values from published data ref 13, read-out: IC50(2), low affinity site, total HDAC activity
  IC50: 0.179 ± 0.053 µM

## O=C(CCCCCCC(=O)Nc1ccc([C@H]2O[C@@H](CSc3nc(-c4ccccc4)c(-c4ccccc4)o3)C[C@@H](c3ccc(CO)cc3)O2)cc1)NO [Tubacin, tubacin]
[20]
  Ki: 8.5 ± 1.5 µM
[21]
  Ki: 0.042 ± 0.0035 µM
[8]; 10 μM tubacin alone
  increase in gj: 9%
[8]; 20 μM tubacin, highest tested dose
  effect on gj: slight decrease
[8]; increasing concentrations of tubacin
  effect on gj: non-significant increase and then decrease in gj with increasing concentration
[22]
  Ki: 1.5 ± 0.25 µM
[23]
  Ki: 0.028 ± 0.004 µM

## O=C(CCCCCCC(=O)Nc1ccccc1)NO [VOR, suberoylanilide hydroxamic acid]
[17]; [29]
  C1, decay constant of first exponential component of HDAC inhibition curve: 140 ± 30 nM
  C2, decay constant of second exponential component of HDAC inhibition curve: 1086 ± 312 nM

## CCCC(CCC)C(=O)O [VPA, valproic acid]
[24]
  IC50: > 100 µM
[2]
  IC50: > 100 µM
[25]
  IC50: 1580 µM
[4]
  IC50: 7440 µM
[19]
  IC50: 3070 µM
